Experimental data taken from PMC10252614 (International Journal of Molecular Sciences, 2023).
“Also recorded” adds a separate entry of the source.

Target: T1, human AChE (hAChE) (Homo sapiens, UniProt P22303)
T1 construct: made in house
Assay: hAChE inhibition, modified Ellman's method
Type: biochemical
Conditions: read-out: % of AChE inhibition
Protocol: N-Methylpropargylamine-quinazolines were tested for their inhibitory potency against human AChE (hAChE) and human BChE (hBChE) enzymes using the modified spectrophotometric method of Ellman et al..
The human recombinant BChE and AChE were prepared at the Department of Toxicology and Military Pharmacy (Faculty of Military Health Sciences, Hradec Kralove, Czech Republic). 5,5′-dithiobis(2-nitrobenzoic acid) (Ellman’s reagent, DTNB), phosphate buffer (PB, pH 7.4), acetylthiocholine (ATC) and butyrylthiocholine (BTC), were purchased from Sigma-Aldrich, Prague, Czech Republic. For measuring purposes, polystyrene Nunc 96-well microplates with a flat-bottom shape (ThermoFisher Scientific, Waltham, MA, USA) were utilized. All the assays were carried out in 0.1 M KH2PO4/K2HPO4 buffer, pH 7.4. Enzyme solutions were prepared at 2.0 units/mL in 2 mL aliquots. The assay medium consisted of a 0.1 M phosphate buffer (pH 7.4), 0.01 M DTNB, the enzyme, and 0.01 M substrate (ATC/BTC iodide solution). Concentration 1 µM was tested and the % of inhibition was calculated. Tested compounds were pre-incubated for 5 min. The reaction was started by immediate addition of 20 μL of the substrate. […] Each concentration was assayed in triplicate. Software GraphPad Prism 5 (San Diego, CA, USA) was used for the statistical data evaluation.

T1 sequence (P22303 32-614): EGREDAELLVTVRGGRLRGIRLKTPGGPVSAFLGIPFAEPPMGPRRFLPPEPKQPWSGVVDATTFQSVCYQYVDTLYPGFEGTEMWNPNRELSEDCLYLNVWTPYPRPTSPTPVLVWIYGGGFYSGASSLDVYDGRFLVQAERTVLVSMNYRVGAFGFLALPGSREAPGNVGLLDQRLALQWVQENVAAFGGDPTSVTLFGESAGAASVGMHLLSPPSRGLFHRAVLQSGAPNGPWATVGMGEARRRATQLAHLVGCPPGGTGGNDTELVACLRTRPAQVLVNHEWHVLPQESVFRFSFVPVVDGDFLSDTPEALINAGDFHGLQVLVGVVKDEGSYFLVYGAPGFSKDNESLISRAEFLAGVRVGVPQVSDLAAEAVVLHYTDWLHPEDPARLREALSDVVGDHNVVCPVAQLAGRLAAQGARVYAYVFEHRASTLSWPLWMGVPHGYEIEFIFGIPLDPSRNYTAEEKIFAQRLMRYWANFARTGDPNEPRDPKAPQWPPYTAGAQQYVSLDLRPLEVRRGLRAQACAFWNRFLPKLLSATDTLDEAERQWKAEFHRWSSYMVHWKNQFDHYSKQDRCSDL

Row | Compound | inhibition at 1 µM [%]
1 | C#CCN(C)c1nc(NC2CCCCC2)c2ccc(Cl)cc2n1 [II-6h, 7-chloro-N4-cyclohexyl-N2-methyl-N2-(prop-2-yn-1-yl)quinazoline-2,4-diamine] | 3
2 | C#CCN(C)c1nc(NC2CCCCC2)c2ccccc2n1 [I-6h, N4-cyclohexyl-N2-methyl-N2-(prop-2-yn-1-yl)quinazoline-2,4-diamine] | 4
3 | C#CCN(C)c1nc(N)c2cc(OC)ccc2n1 [III-6a, 6-methoxy-N2-methyl-N2-(prop-2-yn-1-yl)quinazoline-2,4-diamine] | 9
4 | C#CCN(C)c1nc(NCCCC)c2ccccc2n1 [I-6e, N4-butyl-N2-methyl-N2-(prop-2-yn-1-yl)quinazoline-2,4-diamine] | 3

Target: T2, hMAO-B (Homo sapiens, UniProt P27338)
T2 construct: purchased Merck (Prague, Czech Republic)
T2 sequence (P27338 1-520): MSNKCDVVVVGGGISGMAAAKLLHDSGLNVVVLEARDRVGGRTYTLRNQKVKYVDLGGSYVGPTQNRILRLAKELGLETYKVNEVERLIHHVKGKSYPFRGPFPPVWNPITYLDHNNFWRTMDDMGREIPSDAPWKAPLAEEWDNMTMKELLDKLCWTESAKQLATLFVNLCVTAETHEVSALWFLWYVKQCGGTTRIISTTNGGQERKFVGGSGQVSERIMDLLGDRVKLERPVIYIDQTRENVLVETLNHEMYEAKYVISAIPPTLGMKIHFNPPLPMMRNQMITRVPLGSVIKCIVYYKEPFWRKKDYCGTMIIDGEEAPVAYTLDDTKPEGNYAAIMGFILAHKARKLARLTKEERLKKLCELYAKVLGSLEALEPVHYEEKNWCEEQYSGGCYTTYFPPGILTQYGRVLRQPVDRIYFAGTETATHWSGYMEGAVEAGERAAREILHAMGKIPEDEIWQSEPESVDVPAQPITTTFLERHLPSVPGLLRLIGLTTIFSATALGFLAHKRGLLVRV
Assay: in vitro inhibition of hMAO-B, kynuramine fluorescence assay
Type: biochemical
Conditions: not given
Protocol: The hMAO-A and hMAO-B enzymes were purchased from Merck (Prague, Czech Republic). […] The mixture was pre-incubated at 37 °C for 15 min and subsequently substrate kynuramine was added to the final concentration of 100 µM. The final volume of reaction mixture was 0.1 mL. The whole reaction mixture was incubated at 37 °C for 30 min. The reaction was stopped by the addition of 20 µL 4M NaOH.

Row | Compound | IC50 [µM] | selectivity profile hMAO-A vs hMAO-B (in words)
5 | C#CCN(C)c1nc(NC2CCCCC2)c2ccc(Cl)cc2n1 [II-6h, 7-chloro-N4-cyclohexyl-N2-methyl-N2-(prop-2-yn-1-yl)quinazoline-2,4-diamine] | 0.33 ± 0.02 | hMAO-B selective inhibitors
6 | C#CCN(C)c1nc(NC2CCCCC2)c2ccccc2n1 [I-6h, N4-cyclohexyl-N2-methyl-N2-(prop-2-yn-1-yl)quinazoline-2,4-diamine] | 8.69 ± 0.12 | inhibitor of both hMAO isoforms, with a preference for hMAO-B inhibition
7 | C#CCN(C)c1nc(N)c2cc(OC)ccc2n1 [III-6a, 6-methoxy-N2-methyl-N2-(prop-2-yn-1-yl)quinazoline-2,4-diamine] | – | hMAO-A selective inhibitors
8 | C#CCN(C)c1nc(NCCCC)c2ccccc2n1 [I-6e, N4-butyl-N2-methyl-N2-(prop-2-yn-1-yl)quinazoline-2,4-diamine] | – | hMAO-A selective inhibitors

Same assay, conditions: IC50(MAO-A)/IC50(MAO-B)

Row | Compound | SI for MAO-B
9 | C#CCN(C)c1nc(NC2CCCCC2)c2ccccc2n1 [I-6h, N4-cyclohexyl-N2-methyl-N2-(prop-2-yn-1-yl)quinazoline-2,4-diamine] | 0.10

Test system: not listed separately
Assay: PAMPA prediction of BBB permeability
Type: in vitro ADME
Conditions: not given
Protocol: The assay validation was performed using standard compounds whose CNS status is experimentally known from in vivo conditions.
PAMPA (the parallel artificial membrane-permeability assay) is a high-throughput screening tool applicable for prediction of the passive transport of potential drugs across the blood–brain barrier (BBB). In this study, it was used as a non-cell-based in vitro assay carried out in a coated 96-well membrane filter. The filter membrane of the donor plate was coated with PBL (Polar Brain Lipid, Avanti, USA) in dodecane (4 µL of 20 mg/mL PBL in dodecane) and the acceptor well was filled with 300 µL of PBS (pH 7.4; VA). The tested compounds were dissolved first in DMSO and subsequently diluted with PBS (pH 7.4) to final concentrations of 50–100 μM in the donor wells. […] About 300 µL of the donor solution was added to the donor wells (VD) and the donor filter plate was carefully put on the acceptor plate so that the coated membrane was “in touch” with both the donor solution and acceptor buffer. In principle, the test compound diffused from the donor well through the lipid membrane (Area = 0.28 cm^2) to the acceptor well. The concentration of the drug in both the donor and acceptor wells were assessed after 3, 4, 5, and 6 h of incubation in quadruplicate using the UV plate reader Spark (Tecan Group Ltd., Männedorf, Switzerland) at the maximum absorption wavelength of each compound. In addition, the solution of the theoretical compound concentration, simulating the equilibrium state established if the membrane were ideally permeable, was prepared and assessed as well.

Row | Compound | BBB penetration by PAMPA (in words)
10 | C#CCN(C)c1nc(NC2CCCCC2)c2ccc(Cl)cc2n1 [II-6h, 7-chloro-N4-cyclohexyl-N2-methyl-N2-(prop-2-yn-1-yl)quinazoline-2,4-diamine] | high probability of crossing BBB via passive diffusion
11 | C#CCN(C)c1nc(NC2CCCCC2)c2ccccc2n1 [I-6h, N4-cyclohexyl-N2-methyl-N2-(prop-2-yn-1-yl)quinazoline-2,4-diamine] | high probability of crossing BBB via passive diffusion
12 | C#CCN(C)c1nc(N)c2cc(OC)ccc2n1 [III-6a, 6-methoxy-N2-methyl-N2-(prop-2-yn-1-yl)quinazoline-2,4-diamine] | did not penetrate the artificial barrier
13 | C#CCN(C)c1nc(NCCCC)c2ccccc2n1 [I-6e, N4-butyl-N2-methyl-N2-(prop-2-yn-1-yl)quinazoline-2,4-diamine] | high probability of crossing BBB via passive diffusion

Same assay, conditions: PAMPA class

Row | Compound | CNS (+/−)
14 | C#CCN(C)c1nc(NC2CCCCC2)c2ccc(Cl)cc2n1 [II-6h, 7-chloro-N4-cyclohexyl-N2-methyl-N2-(prop-2-yn-1-yl)quinazoline-2,4-diamine] | CNS (+) (CNS (+) (high BBB permeation predicted): Pe (×10^−6 cm s^−1) > 4.0)
15 | C#CCN(C)c1nc(NC2CCCCC2)c2ccccc2n1 [I-6h, N4-cyclohexyl-N2-methyl-N2-(prop-2-yn-1-yl)quinazoline-2,4-diamine] | CNS (+) (CNS (+) (high BBB permeation predicted): Pe (×10^−6 cm s^−1) > 4.0)
16 | C#CCN(C)c1nc(N)c2cc(OC)ccc2n1 [III-6a, 6-methoxy-N2-methyl-N2-(prop-2-yn-1-yl)quinazoline-2,4-diamine] | CNS (−) (CNS (−) (low BBB permeation predicted): Pe (×10^−6 cm s^−1) < 2.0)
17 | C#CCN(C)c1nc(NCCCC)c2ccccc2n1 [I-6e, N4-butyl-N2-methyl-N2-(prop-2-yn-1-yl)quinazoline-2,4-diamine] | CNS (+) (CNS (+) (high BBB permeation predicted): Pe (×10^−6 cm s^−1) > 4.0)

Same assay, conditions: PAMPA, PBS pH 7.4

Row | Compound | Pe ± SEM [×10⁻⁶ cm/s]
18 | C#CCN(C)c1nc(N)c2cc(OC)ccc2n1 [III-6a, 6-methoxy-N2-methyl-N2-(prop-2-yn-1-yl)quinazoline-2,4-diamine] | 0

Same assay, conditions: PAMPA, PBS pH 7.4; read-out: Pe ± SEM

Row | Compound | Papp [×10⁻⁶ cm/s]
19 | C#CCN(C)c1nc(NC2CCCCC2)c2ccc(Cl)cc2n1 [II-6h, 7-chloro-N4-cyclohexyl-N2-methyl-N2-(prop-2-yn-1-yl)quinazoline-2,4-diamine] | 9.39 ± 1.17
20 | C#CCN(C)c1nc(NC2CCCCC2)c2ccccc2n1 [I-6h, N4-cyclohexyl-N2-methyl-N2-(prop-2-yn-1-yl)quinazoline-2,4-diamine] | 5.61 ± 1.01
21 | C#CCN(C)c1nc(NCCCC)c2ccccc2n1 [I-6e, N4-butyl-N2-methyl-N2-(prop-2-yn-1-yl)quinazoline-2,4-diamine] | 7.37 ± 1.22

Test system: differentiated SH-SY5Y cells
Assay: MTT viability of differentiated SH-SY5Y
Type: cell-based, human
Conditions: concentration equal to IC50 from undifferentiated model, 24 h
Protocol: Then, the differentiated SH-SY5Y cells were treated with concentrations corresponding to the IC50 values obtained from the cytotoxicity measurement using undifferentiated SH-SY5Y cells. Cells were exposed to a tested compound for 24 h. Then, the medium was replaced by a medium containing 10 μM of MTT and cells were allowed to produce formazan for another, approximately 3 h under surveillance. Thereafter, the medium was aspirated and purple crystals of MTT formazan were dissolved in 100 μL DMSO under shaking. Cell viability was assessed spectrophotometrically by the amount of formazan produced. Absorbance was measured at 570 nm with 650 nm reference wavelength on Spark (Tecan Group Ltd., Männedorf, Switzerland). The IC50 value was then calculated from the control-subtracted triplicates using non-linear regression (four parameters) of GraphPad Prism 9 software. Final IC50 and SEM values were obtained as a mean of three.

Row | Compound | effect on viability of differentiated SH-SY5Y (in words)
22 | C#CCN(C)c1nc(NC2CCCCC2)c2ccc(Cl)cc2n1 [II-6h, 7-chloro-N4-cyclohexyl-N2-methyl-N2-(prop-2-yn-1-yl)quinazoline-2,4-diamine] | did not exhibit any cytotoxic effects; also recorded: lost the cytotoxic effect
23 | C#CCN(C)c1nc(NC2CCCCC2)c2ccccc2n1 [I-6h, N4-cyclohexyl-N2-methyl-N2-(prop-2-yn-1-yl)quinazoline-2,4-diamine] | no difference from the undifferentiated model
24 | C#CCN(C)c1nc(N)c2cc(OC)ccc2n1 [III-6a, 6-methoxy-N2-methyl-N2-(prop-2-yn-1-yl)quinazoline-2,4-diamine] | no difference from the undifferentiated model
25 | C#CCN(C)c1nc(NCCCC)c2ccccc2n1 [I-6e, N4-butyl-N2-methyl-N2-(prop-2-yn-1-yl)quinazoline-2,4-diamine] | no difference from the undifferentiated model

Test system: SH-SY5Y cells
Assay: dehydrogenase activity, WST-1 test
Type: cell-based, human
Conditions: 10 µM, 24 h
Protocol: Next, we tested the effects of the compounds on intracellular dehydrogenase activity and glutathione levels. […] To evaluate the effects of the compounds on cells, we measured total intracellular dehydrogenase activity as a marker of cellular viability and glutathione levels for evaluation of oxidative stress (Table 6).
Dehydrogenase activity was evaluated by WST-1 test (Roche, Munich, Germany). The WST-1 test measures the activity of intra- and extra-mitochondrial dehydrogenases. […] The change of absorbance was measured by spectrophotometer at the wavelength of 440 nm using SPARK microplate reader (Tecan, Austria) while incubated at 37 °C. The dehydrogenase activity was expressed as the percentage of total cellular dehydrogenase activity relative to that in the control cells (control = 100%).

Row | Compound | change in dehydrogenase activity (in words)
26 | C#CCN(C)c1nc(NC2CCCCC2)c2ccc(Cl)cc2n1 [II-6h, 7-chloro-N4-cyclohexyl-N2-methyl-N2-(prop-2-yn-1-yl)quinazoline-2,4-diamine] | no significant changes
27 | C#CCN(C)c1nc(N)c2cc(OC)ccc2n1 [III-6a, 6-methoxy-N2-methyl-N2-(prop-2-yn-1-yl)quinazoline-2,4-diamine] | no significant changes

Same assay, conditions: 100 µM, 6 h, mean ± SD

Row | Compound | Dehydrogenase Activity (% of Control)
28 | C#CCN(C)c1nc(NC2CCCCC2)c2ccc(Cl)cc2n1 [II-6h, 7-chloro-N4-cyclohexyl-N2-methyl-N2-(prop-2-yn-1-yl)quinazoline-2,4-diamine] | 40 ± 3 % of Control
29 | C#CCN(C)c1nc(NC2CCCCC2)c2ccccc2n1 [I-6h, N4-cyclohexyl-N2-methyl-N2-(prop-2-yn-1-yl)quinazoline-2,4-diamine] | 62 ± 10 % of Control
30 | C#CCN(C)c1nc(N)c2cc(OC)ccc2n1 [III-6a, 6-methoxy-N2-methyl-N2-(prop-2-yn-1-yl)quinazoline-2,4-diamine] | 107 ± 8 % of Control
31 | C#CCN(C)c1nc(NCCCC)c2ccccc2n1 [I-6e, N4-butyl-N2-methyl-N2-(prop-2-yn-1-yl)quinazoline-2,4-diamine] | 44 ± 13 % of Control

Same assay, conditions: 100 µM, 24 h, mean ± SD

Row | Compound | Dehydrogenase Activity (% of Control)
32 | C#CCN(C)c1nc(NC2CCCCC2)c2ccc(Cl)cc2n1 [II-6h, 7-chloro-N4-cyclohexyl-N2-methyl-N2-(prop-2-yn-1-yl)quinazoline-2,4-diamine] | 22 ± 7 % of Control
33 | C#CCN(C)c1nc(NC2CCCCC2)c2ccccc2n1 [I-6h, N4-cyclohexyl-N2-methyl-N2-(prop-2-yn-1-yl)quinazoline-2,4-diamine] | 49 ± 2 % of Control
34 | C#CCN(C)c1nc(N)c2cc(OC)ccc2n1 [III-6a, 6-methoxy-N2-methyl-N2-(prop-2-yn-1-yl)quinazoline-2,4-diamine] | 128 ± 4 % of Control
35 | C#CCN(C)c1nc(NCCCC)c2ccccc2n1 [I-6e, N4-butyl-N2-methyl-N2-(prop-2-yn-1-yl)quinazoline-2,4-diamine] | 49 ± 4 % of Control
